# Source: patent US20180298344A1, “Realistic Humanized Model of Disease Matrix Environment for Evaluation of Therapeutic Reversal or Cell Fate” (Yale University, priority 2017, published 2018)
# Tests used:
# fibrosis in mouse models = details: in vivo mouse models; cited from earlier work
# [1] = tested on: human microvascular pericytes (PC); assay: PC on high stiffness polyacrylamide hydrogels treated with CCG-1423; α-SMA by flow cytometry, F-Actin staining; type: cell-based; details: for detectable quantities of α-SMA: high-stiffness hydrogels, versus naive PC; for detectable quantities of α-SMA / decrease in expression of α-SMA: flow cytometry; for decrease in expression of α-SMA: 1.0 nM
# Method: (§1) Human microvascular PC were isolated from a readily available and nearly inexhaustible source, human placental tissue, by microvascular segment explant outgrowth (Sava et al., Microcirculation, 2015, 22:54-67; Ayres-Sander et al., PLoS One, 2013, 8:e60025; Lauridsen et al., FASEB, 2014, 28:1166-1180; Maier et al., Microcirculation, 2010, 17:367-380). Human placental tissue was segmented, digested with collagenase, and the resulting cells were cultured in M199 (Gibco, Grand Island, NY, USA) medium supplemented with 20% FBS (Hyclone Laboratories, Logan, Utah, USA), and 1% penicillin-streptomycin (Gibco). Isolated pericytes were screened by flow cytometry against NG2 (H-300, Santa Cruz Biotechnology), CD90 (K-15, Santa Cruz), CD146 (P1H12, Biolegend, San Diego, Calif., USA), PDGFR-β (18A2, Santa Cruz), α-SMA (1A4, Santa Cruz), SMMHC (N-16, Santa Cruz), CD31 (C20, Santa Cruz), CD34 (581, Sigma) and CD45 (MEM-28, Sigma). As negative control, PC were incubated with isotype matched IgG. Samples were run on a Stratedigm S1000EXi Flow Cytometer (Stratedigm, San Jose, Calif. USA) and analyzed with FlowJo software (Tree Star, Ashland, Oreg., USA).
# (§2) Polyacrylamide hydrogels were prepared as previously described (Tse and Engler, Current protocols in cell biology, editorial board, Juan S. Bonifacino et al, 2010, Chapter 10, Unit 10-16). Briefly, amino-silanated coverslips were prepared by treatment with 0.1M NaOH, followed by 3-aminopropyltriethoxysilane (Sigma), and crosslinked with glutaraldehyde. Chloro-silanated coverslips were treated with dichlorodimethylsilane (Sigma). Polyacrylamide solutions of varying stiffness were prepared by altering the concentrations of acrylamide (Bio-Rad, Hercules, Calif., USA) and bis-acrylamide (Bio-Rad). Ammonium persulfate (Sigma) and tetramethylethylenediamine (Bio-Rad) were used as cross-linkers. The solution was placed between the chloro-silanated and amino-silanated coverslips and cross-linked under ambient lighting for 30 minutes, after which the amino-silanated slide, containing the hydrogel, was hydrated in PBS. The ECM components were chemically conjugated to the polyacrylamide hydrogel using the naturally occurring amine residues on the proteins. Sulfa-SANPAH (Thermo Fisher, Grand Island, N.Y., USA) was added in 50 mM 4-(2-hydroxyethyl)-1-piperazineethanesulfonic acid buffer (Sigma) and the hydrogels were placed under UV light (365 nm, 10 mW/cm^2) for 15 minutes, and incubated overnight with either 0.5 mg/mL solubilized healthy or IPF human lung ECM, or isolated ECM proteins (0.1 mg/mL human plasma fibronectin (Millipore, Billerica, Mass., USA) and 0.1 mg/mL collagen I (Sigma). Validation of protein conjugation was performed by tagging ECM with NHS-Fluorescein (5/6-carboxyfluorescein succinimidyl ester), dialyzing overnight, and rinsed extensively (Syed et al., J Vis, Exp, 2015, 97).
# (§3) For short term (7 day) differentiation studies, PC (passage 3-7) were seeded on healthy or IPF lung tissue slices, polyacrylamide hydrogels, or 25 mm glass coverslips (VWR) at 100×10^3 cells per sample and activated with control media (non-activated), or 1 ng/mL TGF-β1 (PeproTech, Rocky Hill, N.J., USA) for 7 days (18, 19). For bleomycin activation, the cells were activated with 1 μg/mL bleomycin sulfate (Cayman Chemical, Ann Arbor, Mich.) for 1 day and the media was replaced with non-activated media for the remaining 6 days (Sava et al., Microcirculation, 2015, 22:54-67; Sterling et al., J Bio Chem, 1983, 258:14438-14444). […]
# [2] = tested on: idiopathic pulmonary fibrosis patients; details: IPF patients; cited from earlier work
# [3] = tested on: human microvascular pericytes (PC); assay: Short term (7 day) myofibroblast differentiation of PC on low, medium, high stiffness hydrogels with TGF-β1 or bleomycin activation; type: cell-based; details: 7 days
# Method: as §1, §2
# as §3, with “258:14438-14444). TGF-β1 and bleomycin concentrations were based on reports consistent with activation of fibroblasts (Sava et al., Microcirculation, 2015, 22:54-67; Maroni and Davis, Bio Reprod, 2012, 87:127). Treatment with CCG-1423 (Sigma) was performed at day 0 for the full 7 days, and labeled as early treatment, or at day 7 and performed for 7 days, and labeled as late treatment.” for “258:14438-14444).”
# [4] = low, medium, high stiffness hydrogels with fibronectin and collagen I, TGF-β1 1 ng/mL 7 days or bleomycin 1 μg/mL 1 day, flow cytometry
compound,measurement,setting,value
CC(ONC(=O)c1cc(C(F)(F)F)cc(C(F)(F)F)c1)C(=O)Nc1ccc(Cl)cc1 (stereo not shown) [CCG-1423],prevention of fibrosis,fibrosis in mouse models,effective in preventing fibrosis
same,detectable quantities of α-SMA,"[1]; CCG-1423 treatment at day 0 of PC culture, P<0.001",significantly reduced
same,detectable quantities of α-SMA,"[1]; CCG-1423 treatment at day 7 of PC culture, P=0.039",significantly reduced
same,cell F-Actin architecture,"[1]; F-Actin staining, high stiffness hydrogel",did not alter
same,decrease in expression of α-SMA,"[1]; early time-point (day 0) treatment for 7 days, high stiffness hydrogel",38.2±4.2%
same,decrease in expression of α-SMA,"[1]; late time point (day 7) treatment for additional 7 days, high stiffness hydrogel",20.4±8.0%
Cc1ccc(=O)n(-c2ccccc2)c1 [pirfenidone],decline in forced vital capacity,[2],reducing the decline in forced vital capacity
bleomycin sulfate,vimentin expression compared to non-activated PC on substrates of the same stiffness,[3]; [4],significantly increased
same,α-SMA expression compared to non-activated PC on substrates of the same stiffness,[3]; [4],significantly increased
same,cell area and elongation (aspect ratio),[3]; medium and high stiffness substrates,largest area and elongation
